Assay results taken from US7417034B2, “Pharmaceutically active uridine esters” (Trommsdorff GmbH & Co. KG Arzeneimittel, priority 2001, dated 2008).
Entries after “also recorded” stand apart in the source; their conditions may differ. Read-outs that look alike come from different tables or passages of the source. Blank lines part the entries; values can stand above or below the compound they belong to.

Legend:
[1] = test system: permanent MCA occlusion in NMRI mice; details: for effect on infarct area (in words): versus controls; for infarct area, Mean: evaluated 2 days after, vehicle only 29.89
Procedure: The neuroprotective effects of α-lipoic acid and more pronounced of dihydrolipoic acid are well known (P. Wolz, J. Krieglstein, Lipoic Acid in Health and Disease, New York, Basel, Hong Kong, Marcel Dekker Inc., 1997, pp. 205-225). Thus, dihydrolipoic acid was chosen as a positive control for comparison reasons.
Permanent middle cerebral artery (MCA) occlusion was performed in male NMRI mice (12 to 17 animals per group) according to the method described by Welsh et al. (J. Neurochem. 1987, 846-851). Briefly, after the mice were anesthetized with tribromoethanol (600 mg/kg intraperitoneally), a small hole was drilled in the skull to expose the middle cerebral artery. The stem of the middle cerebral artery and both branches were permanently occluded by electrocoagulation. Body temperature was maintained at 37° C.±1° C. with a heating lamp during the surgical procedure. Afterwards, the mice were kept at an environmental temperature of 30° C. for 2 hours after MCA occlusion.
For histologic evaluation, the mice were anesthetized again with tribromoethanol and perfused intraperitoneally with a 1.5% solution of neutral red (0.5 ml) 2 days after middle cerebral artery occlusion. The brains were removed and stored in a fixative (4% formalin in phosphate buffer solution, pH 7.4) for 24 hours.
The tissue on the brain surface unstained by neutral red was determined (in square millimeters) as infarcted surface area by means of an image analyzing system (Kontron, Eching, Germany) according to the publication of C. Backhauβ.
The injection of compound 5′, dihydrolipoic acid, and the vehicle only was performed intraperitoneally 1 hour before MCA occlusion. Compound 5′ and dihydrolipoic acid were dissolved in 25% macrogol 400 (vehicle). The injected volume was always 0.25-0.30 ml per mouse. Doses of 100, 150, and 500 mg/kg compound 5′ and 150 mg/kg dihydrolipoic acid were used. The control group received the vehicle (0.25-0.30 ml 25% macrogol 400 per mouse) only.
The differences between compound 5′-treated, dihydrolipoic acid-treated, and vehicle-treated animals were evaluated statistically according to the ANOVA and DUNCAN test.

[2] = test system: 5-HT and 5-HIAA level in substantia nigra; test: 5-HT and 5-HIAA level in rat substantia nigra; assay type: in vivo, Wistar rats; details: four i.p. portions
Source text: (§1) This example was selected to determine the effect of the compounds of the present invention on the concentration of dopamine its metabolite 3,4-dihydroxyphenyl acetic acid (DOPAC) and 5-hydroxytryptamine (5-HT or Serotonin) and its metabolite 5-hydroxyindol acetic acid (5-HIAA) in the substantia nigra and the Striatum of Wistar rats (Charles River, Sulzbach Rosenberg).
(§2) Said two brain regions were selected in order to examine dopaminergic neurons, because it is well known that said neurons are sensitive to neurotoxines which may cause M. Parkinson, Alzheimer, and Chorea Huntington. The method as described below was used to determine degenerative processes. Sodium malonate was used as a neurotoxic substance within said method.
100 mg of compound 5′ were dissolved in 5 ml 50% propan-1,2-diol (Merck, Darmstadt). Four 5 ml portions of compound 5′ were administered intraperitoneal to the test animals. […]
(§3) Four days after sodium malonate application, the Striatum and the treated and untreated part of the substantia nigra was separately excised, weighted, homogenized with perchloric acid, and centrifuged. Aliquots of the supernatants were subsequently subjected to HPLC and by the means of HPLC-ELCD the amount of dopamine, DOPAC, 5-HT, 5-HIM, and 3-methoxytyramine was […] measured.

[3] = test system: dopamine and DOPAC concentration in the Striatum; test: Dopamine and DOPAC concentration in rat Striatum, sodium malonate neurotoxicity model; assay type: in vivo, Wistar rats
Source text: as §1, §2
It is known that sodium malonate increases the release von dopamine in the Striatum of the test animals. Groups of six Wistar rats each have been used as test animals. Thus, the dopamine concentration can be used as an indicator in order to determine the harmful effect of neurotoxines.
100 mg of compound 5′ were dissolved in 5 ml 50% propan-1,2-diol (Merck, Darmstadt). Four 5 ml portions of compound 5′ were administered intraperitoneal to the test animals. The first portion was administered in the evening of the first test day, the second portion during the next morning, the third portion in the evening of the second test day and the late portion during the morning of the third test day. Thirty minutes after the last application of compound 5′ 2 μmol sodium malonate dissolved in physiologic sodium chloride solution were injected into the left Striatum by means of a precision pump (flow rate 0.5 μl/min.) after having anesthetized the rats (Ketamin: 80 mg/kg and Xylasin: 6-10 mg/kg).
as §3

[4] = test system: hippocampal pyramid cells; test: in-vitro Hippocampus cuts: glucose-induced over-sensitiveness of pyramid cells (population spike); assay type: cell-based, rats; details: 30 mM glucose; for IC50: amplitude of population spike, read-out: calculated IC50-value, reduction of glucose-induced over-sensitiveness; for concentration range of activity: population spike
Source text: The model used to determine the effect of the compounds of the present invention on treating diabetes and/or polyneuropathy comprises the use of in-vitro Hippocampus cuts for detecting the over-sensitiveness of pyramid cells due to the enhancement of the glucose concentration. Said over-sensitiveness could be antagonized dose-dependent by the use of a compound of the general formula (I).
The Hippocampus cuts of rats present a validated model for determination of interaction between a drug substance which is in direct contact with neuronal tissue. The interaction between a pharmaceutically active compound and the brain tissue can be examined directly, because of the maintenance of the three dimensional structure of the tissue within the in-vitro Hippocampus cut. Said compounds act on a special population of nerve cells, the pyramid cells of the Hippocampus. It is known that the synapse between pyramid cells and Schaffer-collaterals (which can be electrically stimulated) use the neurotransmitter glutamate for the process of signal transduction. The result of the electric stimulation, the so called population spike, represents the amount of activated pyramid cells. Other known models allow the in-vitro determination of a neuronal network only within a time frame of up to 8 hours. The advantage of this model is that neuronal network can be analyzed in-vitro over a much longer period after chemical or electric provocation of the cells. The cells are brought to an elevated level of stimulation which allows a long term measurement of pharmacologically active compounds under patho-physiologic conditions (W. Dimpfel et al., Antimicrobial Agents and Chemotherapy 1991, 1142-1146; W. Dimpfel et al., Eur. J. Med. Res. 1996, 1, 523-527).
Within the present method the level of stimulation was elevated by the use of an increased concentration of glucose in the superfusion medium in order to measure the antagonistic effect of the compounds of the present invention. Because of the fact that α-lipoic acid had been applied to this method (W. Dimpfel et al., Eur. J. Med. Res. 1996, 1, 523-527), compound 5′ was selected as a close related compound in order to produce reasonable results when comparing α-lipoic acid and uridine with compound 5′. Thus, α-lipoic acid and uridine were selected as reference.
21 adult male CD rats had been used within the present studies. The Hippocampus was isolated after anesthetization and exsanguination of the test animals. The middle part of the Hippocampus was fixed by means of a glue in phosphate-buffered saline (NaCl: 124 mM, KCl: 5 mM, CaCl2: 2 mM, MgSO4: 2 mM, NaH2PO4: 1.25 mM, NaHCO3: 26 mM, glucose: 10 mM; control solution: ACSF; Carl Roth, Karlsruhe, Germany). The Hippocampus was subsequent cut into slides of […] by means of a Vibratom (Rhema Labortechnik). The Hippocampus cuts were stored at least one hour before the test runs in an incubation chamber under carbogen (S. J. Schiff, G. G. Somjen, Brain Research 1985, 345, 279-284).
The experiment was carried out in a so called “Base Unit with Haas Top” (Medical Systems Corporation, U.S.A.) at a temperature of 35° C. according to the protocol of H. L. Haas and R. W. Greene (Neurotransmitter and cortical function; ed. M. Avoli, T. A. Reader, R. W. Dykes and P. Gloor, pp. 483-494, Plenum Publishing Corp.). The Hippocampus cut was placed on a piece of gauze and perfused by means of peristaltic pumps. The test apparatus was flushed with carbogen (flow rate: 200 ml per hour) in order to maintain the necessary oxygen supply.
The CA2-region was stimulated by means of a stimulus generator (laboratory computer, Pro Science) and a bipolar concentric steel electrode (Rhodes Medical Systems, U.S.A.). A pulse width of 200 μs was used and the amperage was constantly kept at 200 μA. The stimulus generator released four single stimulation signals within intervals of 20 seconds which released a total number of four population spikes in the Hippocampus cut. […]

[5] = 150 mg/kg intraperitoneally 1 hour before MCA occlusion
[6] = compound alone, four i.p. portions, p<0.05
[7] = 2 μmol sodium malonate injected into left Striatum, four days after, p<0.001

SMILES: O=C(O)CCCC[C@@H](S)CCS (racemic) [dihydrolipoic acid, reference compound]
effect on infarct area (in words) ([1]; 150 mg/kg i.p.): no effect at all
infarct area, Mean [1, 5]: 27.94 square millimeters

SMILES: O=C(CCCCC(S)CCS)OC[C@H]1O[C@@H](n2ccc(=O)[nH]c2=O)[C@H](O)[C@@H]1O (stereo partly drawn) [Compound 5′, (2′R,3′S,4′R,5′R)-6,8-Dimercapto-octanoic acid 5′-(2,4-dioxo-3,4-dihydro-2H-pyrimidine-1-yl)-3′,4′-dihydroxy-tetrahydrofuran-2′-ylmethyl ester]
5-HT concentration in rat substantia nigra (in words) ([2]; FIG. 5a): significantly increase; also recorded: increased dramatically
5-HIAA level in rat substantia nigra (in words) ([2]; FIG. 5b): significantly increase; also recorded: increased dramatically
compensation of malonate-induced dopamine depletion in rat striatum (in words) ([3]; FIG. 4, relatively low concentrations): can almost be compensated
change of the concentration of DOPAC in the Striatum [3, 6]: +10%
change of the concentration of dopamine in the Striatum [3, 6]: +18%
more dopamine in comparison to the application of malonate only ([3]; compound i.p. together with 2 μmol sodium malonate into left Striatum): +44%
reduction of the elevated stimulation level / over-sensitiveness (in words) ([4]; rat Hippocampus cuts): able to reduce dose-dependent the elevated stimulation level; also recorded: most effectively treated; also recorded: able to significantly reduce the increased over-sensitiveness
IC50 ([4]; rat Hippocampus cuts): 5 µM
concentration range of activity ([4]; rat Hippocampus cuts): 1 to 25 µM
infarct area, Mean ([1]; 100 mg/kg intraperitoneally 1 hour before MCA occlusion): 26.22 square millimeters
infarct area, Mean [1, 5]: 27.00 square millimeters
effect on infarct area (in words) ([1]; 500 mg/kg i.p.): no longer statistically reduced; also recorded: only a slight neuroprotective effect
infarct area, Mean ([1]; 500 mg/kg intraperitoneally 1 hour before MCA occlusion): 28.24 square millimeters
effect on infarcted area (in words) ([1]; lowest dose, 100 mg (100 mg/kg) i.p., versus vehicle): significantly reduced the infarcted area; also recorded: most pronounced
toxic effects in mice ([1]; mice of the MCA occlusion study, 100-500 mg/kg i.p.): no toxic effects could be detected

SMILES: O=C(CCCC[C@@H]1CCSS1)OC[C@H]1O[C@@H](n2ccc(=O)[nH]c2=O)[C@H](O)[C@@H]1O [Compound R-5, (2′R,3R,3′S,4′R,5′R)-5-[1,2]Dithiolan-3-yl-pentanoic acid 5′-(2,4-dioxo-3,4-dihydro-2H-pyrimidine-1-yl)-3′,4′-dihydroxy-tetrahydrofuran-2′-ylmethyl ester]
IC50 ([4]; rat Hippocampus cuts): 8 µM
concentration range of activity ([4]; rat Hippocampus cuts): 1 to 15 µM

SMILES: O=C(CCCC[C@H]1CCSS1)OC[C@H]1O[C@@H](n2ccc(=O)[nH]c2=O)[C@H](O)[C@@H]1O [Compound S-5, (2′R,3S,3′S,4′R,5′R)-5-[1,2]Dithiolan-3-yl-pentanoic acid 5′-(2,4-dioxo-3,4-dihydro-2H-pyrimidine-1-yl)-3′,4′-dihydroxy-tetrahydrofuran-2′-ylmethyl ester]
IC50 ([4]; rat Hippocampus cuts): 4 µM
concentration range of activity ([4]; rat Hippocampus cuts): 1 to 10 µM

SMILES: O=C([O-])CC(=O)[O-].[Na+].[Na+] [malonate, sodium malonate, reference compound]
change of the concentration of DOPAC [3, 7]: −30%
change of the concentration of dopamine [3, 7]: −44%

IC50 ([4]; Rattus norvegicus): 40 µM
SMILES: O=c1ccn([C@@H]2O[C@H](CO)[C@@H](O)[C@H]2O)c(=O)[nH]1 [uridine]
reduction of the elevated stimulation level / over-sensitiveness (in words) ([4]; rat Hippocampus cuts): able to reduce dose-dependent the elevated stimulation level; also recorded: only weaker effects; also recorded: much weaker effects

IC50 ([4]; rat Hippocampus cuts): ~200 µM
SMILES: O=C(O)CCCCC1CCSS1 (stereo not drawn) [α-lipoic acid, reference compound]
reduction of the elevated stimulation level / over-sensitiveness (in words) ([4]; rat Hippocampus cuts): able to reduce dose-dependent the elevated stimulation level; also recorded: only weaker effects; also recorded: much weaker effects
concentration range of activity ([4]; rat Hippocampus cuts): ≤ 400 µM
